{"source": "paper PMC10323144", "about": "“Garbage in, garbage out: how reliable training data improved a virtual screening approach against SARS-CoV-2 MPro” (Frontiers in Pharmacology, 2023)", "key": {"[1]": {"experiment": "Cytotoxicity assay, WST-1", "conditions": "human, CC50 A549 cells"}, "[2]": {"molecular_target": "SARS-CoV-2 MPro (Severe acute respiratory syndrome coronavirus 2, UniProt P0DTD1)", "experiment": "MPro activity assay (de-quenching of Edans fluorescence on cleavage of a Dabcyl/Edans peptide)", "format": "biochemical", "conditions": "for IC50: 60 min pre-incubation, 5 μM substrate; for Class (MPro activity class): in-house acquired data, internal screening under standardized conditions (128 compounds)"}, "[3]": {"experiment": "in vitro", "conditions": "African green monkey"}, "[4]": {"test_system": "SARS-CoV-2 (βCoV/KOR/KCDC03/2020)", "experiment": "microbe, parasite or virus in culture", "format": "cell-based"}, "[5]": {"test_system": "MPro", "conditions": "compiled from peer-reviewed sources (287 compounds) ref the 18 original articles; cited from earlier work"}, "[6]": {"conditions": "Severe acute respiratory syndrome coronavirus 2, Vero, 24 h"}}, "note": "Where two headings read alike, the source gives them in different places."}
{"smiles": "[O-][n+]1onc2ccc(/C=C\\c3ccc(Cl)cc3)cc21", "note": "[2d]", "values": [{"measurement": "CC50 at 24 h", "setting": "[1]", "value": "> 50", "unit": "µM"}, {"measurement": "activity at 25 µM", "setting": "[2]; read-out: MPro activity (%)", "value": "53.2 ± 0.2", "unit": "%"}]}
{"smiles": "O=C(/C=C/c1ccc2no[n+]([O-])c2c1)c1ccc(Cl)cc1", "note": "[5d]", "values": [{"measurement": "CC50 at 24 h", "setting": "[1]", "value": "> 50", "unit": "µM"}, {"measurement": "CC50", "setting": "[3]", "value": "> 50", "unit": "µM"}, {"measurement": "IC50", "setting": "[2]", "value": "0.64 ± 0.02", "unit": "µM"}, {"measurement": "IC50", "setting": "[4]", "value": 43.2, "unit": "µM"}, {"measurement": "IC50", "setting": "[4]; [6]", "value": "~44", "unit": "µM"}]}
{"smiles": "O=C(OC[C@H]1O[C@@H]([S+]([O-])c2ccccc2)[C@H](OC(=O)c2ccccc2)[C@@H](OC(=O)c2ccccc2)[C@@H]1OC(=O)c1ccccc1)c1ccccc1", "note": "(stereo partly drawn) [7a]", "values": [{"measurement": "CC50", "setting": "[3]", "value": "> 50", "unit": "µM"}, {"measurement": "IC50", "setting": "[2]", "value": "20.2 ± 1.9", "unit": "µM"}, {"measurement": "IC50", "setting": "[4]; [6]", "value": "> 50", "unit": "µM"}, {"measurement": "inhibition at 25 µM", "setting": "[4]; Severe acute respiratory syndrome coronavirus 2, Vero, at 25 μM, read-out: inhibition of viral replication", "value": 15, "unit": "%"}, {"measurement": "inhibition at 50 µM", "setting": "[4]; Severe acute respiratory syndrome coronavirus 2, Vero, at 50 μM, read-out: inhibition of viral replication", "value": 21, "unit": "%"}]}
{"smiles": "O=CC(CC1CCNC1=O)NC(=O)C(CC1CCCCC1)NC(=O)c1cc2ccccc2[nH]1", "note": "(stereo not drawn) [11a]", "values": [{"measurement": "Class (MPro activity class)", "setting": "[5]", "value": "1 (Compounds with IC50 < 10 µM or with a percentage of enzyme inhibition >50% at 10 µM were labelled as ACTIVE)"}, {"measurement": "activity at 10 µM", "setting": "[2]; read-out: % activity MPro", "value": "104 ± 1.1", "unit": "%"}]}
{"smiles": "Nc1ccc(S(=O)(=O)c2ccc(Nc3c([N+](=O)[O-])c(Cl)cc4c3no[n+]4[O-])cc2)cc1", "note": "[22d]", "values": [{"measurement": "CC50 at 24 h", "setting": "[1]", "value": "> 100", "unit": "µM"}, {"measurement": "CC50", "setting": "[3]", "value": "> 50", "unit": "µM"}, {"measurement": "IC50", "setting": "[2]", "value": "0.37 ± 0.085", "unit": "µM"}, {"measurement": "IC50", "setting": "[4]", "value": 44.8, "unit": "µM"}, {"measurement": "IC50", "setting": "[4]; [6]", "value": "~44", "unit": "µM"}]}
{"smiles": "O=C(/C=C/c1ccc2ccccc2c1)c1c(O)ccc2ccccc12", "note": "[27d]", "values": [{"measurement": "IC50", "setting": "[2]", "value": 5.8, "unit": "µM"}, {"measurement": "antiviral activity (in words)", "setting": "[4]", "value": "lacked antiviral activity"}]}
{"smiles": "CCN(CC)CCCC(C)Nc1ccnc2cc(Cl)ccc12", "note": "(stereo not drawn) [Chloroquine]", "values": [{"measurement": "CC50", "setting": "[3]", "value": "> 150", "unit": "µM"}, {"measurement": "Class (MPro activity class)", "setting": "[5]", "value": "0 (compounds with IC50 > 20 μM, percentage inhibition <80% at 20 µM or 50 μM, or percentage enzyme inhibition <50% at 10 µM were labelled as INACTIVE)"}, {"measurement": "IC50", "setting": "[4]", "value": 17.8, "unit": "µM"}, {"measurement": "IC50", "setting": "[4]; [6]", "value": 18, "unit": "µM"}]}
{"smiles": "Cc1ccc(S(=O)(=O)Nc2nc3cc(Cl)c(Oc4cccc(Cl)c4Cl)cc3[nH]2)cc1", "note": "[Cpd 31]", "values": [{"measurement": "IC50", "setting": "[2]", "value": "> 25", "unit": "µM"}, {"measurement": "Class (MPro activity class)", "setting": "[2]", "value": "0 (compounds with IC50 > 20 μM, percentage inhibition <80% at 20 µM or 50 μM, or percentage enzyme inhibition <50% at 10 µM were labelled as INACTIVE)"}]}
{"smiles": "Nc1cccc(C(=O)Nc2nc3c(s2)CC(NC(=O)c2cc(Br)c(Br)[nH]2)CC3)c1", "note": "(stereo not drawn) [Cpd 46]", "values": [{"measurement": "Class (MPro activity class)", "setting": "[2]", "value": "0 (compounds with IC50 > 20 μM, percentage inhibition <80% at 20 µM or 50 μM, or percentage enzyme inhibition <50% at 10 µM were labelled as INACTIVE)"}]}
{"smiles": "O=C(Nc1nc2c(s1)CC(NC(=O)c1cc(Br)c(Br)[nH]1)CC2)c1c[nH]cn1", "note": "(stereo not drawn) [Cpd 47]", "values": [{"measurement": "Class (MPro activity class)", "setting": "[2]", "value": "0 (compounds with IC50 > 20 μM, percentage inhibition <80% at 20 µM or 50 μM, or percentage enzyme inhibition <50% at 10 µM were labelled as INACTIVE)"}]}
{"smiles": "Nc1nc2c(s1)CC(NC(=O)c1cc3cc(F)ccc3[nH]1)CC2", "note": "(stereo not drawn) [Cpd 48]", "values": [{"measurement": "Class (MPro activity class)", "setting": "[2]", "value": "0 (compounds with IC50 > 20 μM, percentage inhibition <80% at 20 µM or 50 μM, or percentage enzyme inhibition <50% at 10 µM were labelled as INACTIVE)"}]}
{"smiles": "NC1CCc2nc(NC(=O)c3cc(Cl)c(Cl)[nH]3)sc2C1", "note": "(stereo not drawn) [Cpd 49]", "values": [{"measurement": "Class (MPro activity class)", "setting": "[2]", "value": "0 (compounds with IC50 > 20 μM, percentage inhibition <80% at 20 µM or 50 μM, or percentage enzyme inhibition <50% at 10 µM were labelled as INACTIVE)"}]}
{"smiles": "CCOC(=O)C(=O)NC1CCc2nc(NC(=O)c3cc(Cl)c(Cl)[nH]3)sc2C1", "note": "(stereo not drawn) [Cpd 50]", "values": [{"measurement": "Class (MPro activity class)", "setting": "[2]", "value": "0 (compounds with IC50 > 20 μM, percentage inhibition <80% at 20 µM or 50 μM, or percentage enzyme inhibition <50% at 10 µM were labelled as INACTIVE)"}]}
{"smiles": "O=C(O)C(=O)NC1CCc2nc(NC(=O)c3cc(Cl)c(Cl)[nH]3)sc2C1", "note": "(stereo not drawn) [Cpd 51]", "values": [{"measurement": "Class (MPro activity class)", "setting": "[2]", "value": "0 (compounds with IC50 > 20 μM, percentage inhibition <80% at 20 µM or 50 μM, or percentage enzyme inhibition <50% at 10 µM were labelled as INACTIVE)"}, {"measurement": "activity at 25 µM", "setting": "[2]; read-out: % activity MPro", "value": "107 ± 5.7", "unit": "%"}]}
{"smiles": "COc1cccc(-n2c(NCCN3CCNCC3)nc3sc4c(c3c2=O)CCCC4)c1", "note": "[Cpd 52]", "values": [{"measurement": "Class (MPro activity class)", "setting": "[2]", "value": "0 (compounds with IC50 > 20 μM, percentage inhibition <80% at 20 µM or 50 μM, or percentage enzyme inhibition <50% at 10 µM were labelled as INACTIVE)"}]}
{"smiles": "COC(=O)CC(=O)Nc1nc2c(s1)CC(NC(=O)c1[nH]c(C)c(Cl)c1Cl)CC2", "note": "(stereo not drawn) [Cpd 53]", "values": [{"measurement": "Class (MPro activity class)", "setting": "[2]", "value": "0 (compounds with IC50 > 20 μM, percentage inhibition <80% at 20 µM or 50 μM, or percentage enzyme inhibition <50% at 10 µM were labelled as INACTIVE)"}]}
{"smiles": "Cc1[nH]c(C(=O)NC2CCc3nc(NC(=O)CC(=O)O)sc3C2)c(Cl)c1Cl", "note": "(stereo not drawn) [Cpd 54]", "values": [{"measurement": "Class (MPro activity class)", "setting": "[2]", "value": "0 (compounds with IC50 > 20 μM, percentage inhibition <80% at 20 µM or 50 μM, or percentage enzyme inhibition <50% at 10 µM were labelled as INACTIVE)"}]}
{"smiles": "CCOC(=O)C(=O)Nc1nc2c(s1)CC(NC(=O)c1cc(Br)c(Br)[nH]1)CC2", "note": "(stereo not drawn) [Cpd 55]", "values": [{"measurement": "Class (MPro activity class)", "setting": "[2]", "value": "0 (compounds with IC50 > 20 μM, percentage inhibition <80% at 20 µM or 50 μM, or percentage enzyme inhibition <50% at 10 µM were labelled as INACTIVE)"}]}
{"smiles": "O=C(O)C(=O)Nc1nc2c(s1)CC(NC(=O)c1cc(Br)c(Br)[nH]1)CC2", "note": "(stereo not drawn) [Cpd 56]", "values": [{"measurement": "Class (MPro activity class)", "setting": "[2]", "value": "0 (compounds with IC50 > 20 μM, percentage inhibition <80% at 20 µM or 50 μM, or percentage enzyme inhibition <50% at 10 µM were labelled as INACTIVE)"}]}
